Reference: patent publication US11919856B2, “Compounds” (UCL BUSINESS LTD, priority 2018, dated 2024)
Entries after “also recorded” stand apart in the source; their conditions may differ.

Tests used:
[1] = tested on: Z α1-antitrypsin polymer; experiment: Liver polymer levels in Z α1-antitrypsin transgenic mice (2C1 staining); type: in vivo, human; conditions: 100 mg/kg three times a day for 20 days
Method: Since Compound 1 blocks polymer formation in cells the effect of dosing Compound 1 on liver polymer levels was explored. It has recently been shown that Z α1-antitrypsin polymers formed in CHO-TET-ON-Z-A1AT and ZZ-iPSC-hepatocytes are cleared from cells with a t½ of between 8 and 48 hours depending on whether they partition to the soluble or insoluble fractions. […] Compound 1 was therefore dosed at 100 mg/kg three times a day as above for 20 days. On days 15 and 21 of dosing, changes of monomeric Z α1-antitrypsin plasma samples were determined as above, and increases of 7- to 8-fold over the pre-dosing baseline levels were observed, similar to the effect in animals dosed for 3 or 6 days, consistent with sustained target engagement through the dosing period. Liver polymer levels were investigated by staining with 2C1 anti-polymer monoclonal antibody and were scored blinded either by a pathologist or by quantification using an algorithm to measure all areas of positive staining. There was no difference observed in total liver polymer load via manual or quantitative scoring.
To investigate whether there is a subpopulation of polymer in the liver that was responding to compound over the time frame of the experiment, areas of staining were divided into low, medium and high intensity regions and scored separately for response to compound. […]

[2] = Total and free drug in blood and liver of Z α1-antitrypsin transgenic mice; type: in vivo, mouse; conditions: for systemic free drug levels relative to in vitro secretion potency: duration of the dosing period
Method: To explore the PK-PD relationship of Compound 1, Z α1-antitrypsin transgenic animals were dosed with 100, 30 or 10 mg/kg Compound 1 three times a day and on day 6 blood and liver were harvested at 3 hr (˜Cmax) and 8 hr (Cmin) after the dose for the measurement of total and free drug in both tissues. Blood was also harvested for the measurement of monomeric Z α1-antitrypsin in plasma. Total concentrations of Compound 1 were determined by specific LC-MS/MS assay and the free unbound drug in both tissues was determined using equilibrium dialysis and used to derive unbound concentrations.

[3] = target: T1, Z α1-antitrypsin (Homo sapiens, UniProt P01009, E366K/V237A); experiment: Secretion of Z α1-antitrypsin from iPSC-derived hepatocytes (ZZ genotype); type: cell-based; design: a random insertion of the human Z α1-antitrypsin gene; from tissue; host or cells: liver and plasma of Z α1-antitrypsin transgenic mice (human Z transgene)
T1 sequence (P01009 25-418 V237A/E366K): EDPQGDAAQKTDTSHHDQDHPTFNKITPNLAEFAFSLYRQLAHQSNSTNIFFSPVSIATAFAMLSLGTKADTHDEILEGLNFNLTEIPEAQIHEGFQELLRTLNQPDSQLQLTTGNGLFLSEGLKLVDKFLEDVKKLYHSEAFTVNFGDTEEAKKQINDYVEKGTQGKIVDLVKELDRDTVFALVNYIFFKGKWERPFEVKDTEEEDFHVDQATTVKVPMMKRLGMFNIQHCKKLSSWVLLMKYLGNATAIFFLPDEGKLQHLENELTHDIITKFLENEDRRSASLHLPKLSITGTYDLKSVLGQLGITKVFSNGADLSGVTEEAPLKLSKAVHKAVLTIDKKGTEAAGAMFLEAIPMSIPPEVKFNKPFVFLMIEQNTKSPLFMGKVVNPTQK
Method: In order to confirm that the potency and efficacy of Compound 1 in CHO-TET-ON-Z-A1AT was a reasonable estimate of what could be expected in hepatocytes with endogenous levels of expression, the effect of Compound 1 on the secretion and polymerisation of Z α1-antitrypsin was measured in iPSC-derived hepatocytes with the ZZ α1-antitrypsin genotype (Yusa et al. Nature. 2011; 478:391-4).

[4] = target: T1, Z α1-antitrypsin; experiment: Rapid refolding (non-denaturing PAGE); type: biochemical; conditions: snap dilution refolding
Method: Refolding of α1-antitrypsin in vitro is not fully reversible, due to loss of material from amorphous aggregation, polymerisation and misfolding. These contributions cannot be readily deconvoluted by bulk spectroscopic methods and therefore refolding was evaluated by non-denaturing PAGE. M and Z α1-antitrypsin at 9.6 mg/ml were denatured in 6 M urea and 15 mM sodium phosphate pH 8.0 for 4 hours at room temperature, and 1.25 μl was snap refolded into 250 μl PBS containing 0-50 μM Compound 1 and a normalised concentration of 5% v/v DMSO. After incubation for 1 hour at room temperature samples were analysed by Coomassie-stained 3-12% w/v acrylamide Bis-Tris Native PAGE gel (Life Technologies).
Mutations that interfere with the opening of […] or that perturb its interaction with the N-terminal portion of the reactive centre loop alter the ability of serpins to inhibit target proteases. The stoichiometry of inhibition (SI) was determined for M and Z α1-antitrypsin in discontinuous experiments against a model target protease, chymotrypsin. The pre-incubation of both variants with Compound 1 led to a >98% loss of protease inhibitory activity. […]

[5] = In vitro clearance in cryopreserved hepatocytes, dog; type: in vitro ADME
[6] = tested on: α1-antitrypsin; experiment: Equilibrium unfolding with guanidine hydrochloride (bis-ANS fluorescence); type: biochemical; conditions: guanidinium hydrochloride, 50 μM Compound 1; 1.2 M in its absence
Method: Bis-ANS is a dye that reports the appearance of the unfolding intermediate of α1-antitrypsin (Dafforn et al. J Biol Chem. 1999; 274:9548-55.). In a microplate, 10 μl aliquots of M and Z α1-antitrypsin at 0.5 mg/ml with 100 μM bis-ANS and 100 μM Compound 1 (or an equivalent volume of DMSO) were rapidly mixed with various concentrations of guanidine hydrochloride giving a final concentration of 0-6 M denaturant in PBS. Fluorescence intensity measurements of bis-ANS (λex=385 nm, λem=490 nm) were recorded once a stable signal was achieved, and the values scaled to lie between 0 and 1.0.
Polymerisation of α1-antitrypsin occurs from a transient intermediate state known as M*, that is readily populated by the Z variant. One of the hallmarks of M* is its recognition by environment-sensitive fluorescent reporter dyes. Thermal shift assays that make use of the dye SYPRO Orange report the stability of the protein native state against heat-induced unfolding. […] Native state stability can also be probed by equilibrium unfolding using chemical denaturants, where a peak in bis-ANS fluorescence corresponds with a maximally populated unfolding intermediate.

CCC[C@@H](NC(=O)c1cccc2c1CC(=O)N2)[C@@H](O)c1cccc(F)c1C [Compound 1, N-[(1S,2R)-1-(3-fluoro-2-methylphenyl)-1-hydroxypentan-2-yl]-2-oxo-2,3-dihydro-1H-indole-4-carboxamide]
liver polymer staining in low, medium and high intensity regions [1]: No effect | total liver polymer load ([1]; manual or quantitative scoring): no difference; also recorded: no reduction | systemic free drug levels relative to in vitro secretion potency ([2]; 10 mg/kg): EC10-EC20 | free drug levels in blood ([2]; 30 mg/kg and 10 mg/kg three times a day, large part of the dosing period): significantly below the cellular EC50 concentrations | systemic free drug levels relative to in vitro secretion potency ([2]; 30 mg/kg): EC20-EC30 | concentration at 8 h ([2]; Z α1-antitrypsin transgenic, mouse, blood, oral, 100 mg/kg three times a day, day 6, majority of the dosing period, read-out: Cmin levels of the free drug concentration in blood): ≥ 300 nM | free and total drug concentrations in the liver ([2]; transgenic mice, day 6): equivalent to those in blood | increase of secreted levels of Z α1-antitrypsin [3]: approximately 3 fold | EC50 ([3]; read-out: pEC50, secretion of Z α1-antitrypsin (converted)): 316 nM | anodally-shifted migration (misfolded byproduct) of refolded Z variant [4]: corrected at stoichiometric concentrations and above | in vitro clearance in cryopreserved hepatocytes [5]: < 0.65 mL/min/g | denaturant concentration at peak bis-ANS fluorescence (maximally populated unfolding intermediate) [6]: 1.8 M
